Laboratory results: patent US12534450B2, “Methods and compositions for targeting PD-L1” (Aligos Therapeutics, Inc., priority 2021, dated 2026)

These compounds were tested against PD-1/PD-L1 PPI (Homo sapiens, UniProt Q9NZQ7) (assay: PDL1/PD1 Binding Assay). Conditions: PDL1-6×His 0.3 nM, PD1-Fc-Avi-Biotin 2.5 nM, Acceptor/Donor beads, Envision reader.
Method in brief: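 AlphaScreen competition: compound (1% DMSO) preincubated 30 min RT with PDL1-6×His (0.3 nM), then PD1-Fc-Avi-Biotin (2.5 nM) 30 min; anti-His acceptor and streptavidin donor beads (20 ug/mL each) added, 1 h each, dark up to overnight. Buffer 25 mM Hepes pH 7.4, 150 mM NaCl. IC50 by four-parameter fit.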

Sequence of PD-1/PD-L1 PPI (Q9NZQ7 19-238 limits assumed): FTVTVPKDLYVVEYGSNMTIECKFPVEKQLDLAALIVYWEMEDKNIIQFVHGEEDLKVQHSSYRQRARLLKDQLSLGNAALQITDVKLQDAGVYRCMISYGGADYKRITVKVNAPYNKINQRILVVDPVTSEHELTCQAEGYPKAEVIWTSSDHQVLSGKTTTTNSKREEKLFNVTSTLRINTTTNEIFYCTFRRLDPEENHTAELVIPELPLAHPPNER

Row | SMILES | IC50 [nM]
1 | COc1nc(-c2cccc(-c3cccc(NC(=O)c4cn(C)c(=O)n(C)c4=O)c3Cl)c2Cl)cc2c1C(NCCO)CC2 [Compound D-5] | ≤ 10
2 | COc1nc(-c2cccc(-c3cccc(NC(=O)c4cn(C)c(=O)n(C)c4=O)c3Cl)c2Cl)cc2c1C(N[C@@H]1CCOC[C@H]1O)CC2 (stereo partly drawn) [Compound D-6] | ≤ 10
3 | COc1nc(-c2cccc(-c3cccc(NC(=O)c4cn(C)c(=O)n(C)c4=O)c3Cl)c2Cl)cc2c1C(N[C@H]1CCOC[C@H]1O)CC2 (stereo partly drawn) [Compound D-7] | ≤ 10
4 | COc1nc(-c2cccc(-c3cccc(NC(=O)c4cn(C)c(=O)n(C)c4=O)c3C)c2Cl)cc2c1C(NCC(N)=O)CC2 [Compound D-9] | ≤ 10
5 | COc1nc(-c2cccc(-c3cccc(NC(=O)c4cn(C)c(=O)n(C)c4=O)c3C)c2Cl)cc2c1C(NC1COC1)CC2 [Compound D-10] | ≤ 10
6 | COc1nc(-c2cccc(-c3cccc(NC(=O)c4cn(C)c(=O)n(C)c4=O)c3C)c2Cl)cc2c1C(NC1CC1)CC2 [Compound D-11] | ≤ 10
7 | COc1nc(-c2cccc(-c3cccc(NC(=O)c4cn(C)c(=O)n(C)c4=O)c3Cl)c2Cl)cc2c1C(N1CC3(CNC(=O)O3)C1)CC2 [Compound D-15] | ≤ 10
8 | COc1nc(-c2cccc(-c3cccc(NC(=O)c4cn(C)c(=O)n(C)c4=O)c3Cl)c2Cl)cc2c1C(N1CC3(CCN(C(=O)OC(C)(C)C)C3)C1)CC2 [Compound D-16] | 10 to 100
9 | COc1nc(-c2cccc(-c3cccc(NC(=O)c4cn(C)c(=O)n(C)c4=O)c3C)c2C)cc2c1C(N1CC(C)(O)C1)CC2 [Compound D-17] | ≤ 10
10 | COc1nc(-c2cccc(-c3cccc(NC(=O)c4cn(C)c(=O)n(C)c4=O)c3C)c2C)cc2c1C(N1CC(C)(OC)C1)CC2 [Compound D-18] | ≤ 10
11 | COc1nc(-c2cccc(-c3cccc(NC(=O)c4cn(C)c(=O)n(C)c4=O)c3C)c2C)cc2c1C(N1C[C@@H](O)[C@@H]1C)CC2 (stereo partly drawn) [Compound D-19] | ≤ 10
12 | CCCCOC(=O)N(C[C@@H]1CCC(=O)N1)[C@H]1CCc2cc(-c3cccc(-c4cccc(NC(=O)c5cn(C)c(=O)n(C)c5=O)c4C)c3Cl)nc(OC)c21 [Compound E-2] | ≤ 10
13 | COc1nc(-c2cccc(-c3cccc(NC(=O)c4cn(C)c(=O)n(C)c4=O)c3Cl)c2Cl)cc2c1C(N1CC3(CCNC3)C1)CC2 (stereo not shown) [Compound G-1] | ≤ 10
14 | COc1nc(-c2cccc(-c3cccc(NC(=O)c4cn(C)c(=O)n(C)c4=O)c3Cl)c2Cl)cc2c1C(N1CC3(CCN(C(C)=O)C3)C1)CC2 (stereo not shown) [Compound H-1] | ≤ 10

The compounds below were run on PD-1/PD-L1 interaction (assay: PD-1/PD-L1 NFAT Reporter Assay (co-culture of Jurkat T cells overexpressing PD-1 and PD-L1 expressing CHO cells)). Conditions: Homo sapiens, Jurkat, 6 h, co-culture 6 hrs at 37° C., NFAT-mediated luciferase activity.
Type: cell-based
Method in brief: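 Compounds added to CHO cells expressing surface anti-CD3 and PD-L1, then Jurkat cells with PD-1 and NFAT-driven luciferase seeded on top; co-culture 6 hrs at 37° C. Luminescence read after ONE-Glo addition, EC50 from dose-response fit.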

Row | SMILES | EC50 [nM]
15 | COc1nc(-c2cccc(-c3cccc(NC(=O)c4cn(C)c(=O)n(C)c4=O)c3Cl)c2Cl)cc2c1C(NCCO)CC2 [Compound D-5] | 10 to 100
16 | COc1nc(-c2cccc(-c3cccc(NC(=O)c4cn(C)c(=O)n(C)c4=O)c3Cl)c2Cl)cc2c1C(N[C@@H]1CCOC[C@H]1O)CC2 (stereo partly drawn) [Compound D-6] | 10 to 100
17 | COc1nc(-c2cccc(-c3cccc(NC(=O)c4cn(C)c(=O)n(C)c4=O)c3Cl)c2Cl)cc2c1C(N[C@H]1CCOC[C@H]1O)CC2 (stereo partly drawn) [Compound D-7] | 10 to 100
18 | COc1nc(-c2cccc(-c3cccc(NC(=O)c4cn(C)c(=O)n(C)c4=O)c3C)c2Cl)cc2c1C(NCC(N)=O)CC2 [Compound D-9] | 10 to 100
19 | COc1nc(-c2cccc(-c3cccc(NC(=O)c4cn(C)c(=O)n(C)c4=O)c3C)c2Cl)cc2c1C(NC1COC1)CC2 [Compound D-10] | 10 to 100
20 | COc1nc(-c2cccc(-c3cccc(NC(=O)c4cn(C)c(=O)n(C)c4=O)c3C)c2Cl)cc2c1C(NC1CC1)CC2 [Compound D-11] | 10 to 100
21 | COc1nc(-c2cccc(-c3cccc(NC(=O)c4cn(C)c(=O)n(C)c4=O)c3Cl)c2Cl)cc2c1C(N1CC3(CNC(=O)O3)C1)CC2 [Compound D-15] | 10 to 100
22 | COc1nc(-c2cccc(-c3cccc(NC(=O)c4cn(C)c(=O)n(C)c4=O)c3Cl)c2Cl)cc2c1C(N1CC3(CCN(C(=O)OC(C)(C)C)C3)C1)CC2 [Compound D-16] | 100 to 1000
23 | COc1nc(-c2cccc(-c3cccc(NC(=O)c4cn(C)c(=O)n(C)c4=O)c3C)c2C)cc2c1C(N1CC(C)(O)C1)CC2 [Compound D-17] | 10 to 100
24 | COc1nc(-c2cccc(-c3cccc(NC(=O)c4cn(C)c(=O)n(C)c4=O)c3C)c2C)cc2c1C(N1CC(C)(OC)C1)CC2 [Compound D-18] | 10 to 100
25 | COc1nc(-c2cccc(-c3cccc(NC(=O)c4cn(C)c(=O)n(C)c4=O)c3C)c2C)cc2c1C(N1C[C@@H](O)[C@@H]1C)CC2 (stereo partly drawn) [Compound D-19] | 100 to 1000
26 | CCCCOC(=O)N(C[C@@H]1CCC(=O)N1)[C@H]1CCc2cc(-c3cccc(-c4cccc(NC(=O)c5cn(C)c(=O)n(C)c5=O)c4C)c3Cl)nc(OC)c21 [Compound E-2] | > 10000
27 | COc1nc(-c2cccc(-c3cccc(NC(=O)c4cn(C)c(=O)n(C)c4=O)c3Cl)c2Cl)cc2c1C(N1CC3(CCNC3)C1)CC2 (stereo not shown) [Compound G-1] | 10 to 100
28 | COc1nc(-c2cccc(-c3cccc(NC(=O)c4cn(C)c(=O)n(C)c4=O)c3Cl)c2Cl)cc2c1C(N1CC3(CCN(C(C)=O)C3)C1)CC2 (stereo not shown) [Compound H-1] | ≤ 10
